Experimental data published in ChEMBL document CHEMBL3797052 (Eur J Med Chem, 2016).
Calls of active or inactive are those of the source. No cut-off for these calls is given here.

Legend:
SK-MEL-5 = test: Antiproliferative activity against human SK-MEL-5 cells assessed as growth inhibition after 48 hrs by sulforhodamine B assay; type: functional; conditions: SK-MEL-5, 48 h; for CC50: read-out: LC50 (the source's name)
[1] = Antiproliferative activity against human LOXIMVI cells assessed as growth inhibition after 48 hrs by sulforhodamine B assay; type: functional; conditions: LOX IMVI; for CC50: read-out: LC50 (the source's name)
[2] = Antiproliferative activity against human RPMI8226 cells assessed as growth inhibition after 48 hrs by sulforhodamine B assay; type: functional; conditions: RPMI-8226, 48 h
CCRF-CEM = test: Antiproliferative activity against human CCRF-CEM cells assessed as cell growth at 10^-7 M after 48 hrs by sulforhodamine B assay; type: functional; conditions: read-out: Activity
[3] = Antiproliferative activity against human HOP92 cells assessed as cell growth at 10^-7 M after 48 hrs by sulforhodamine B assay; type: functional; conditions: HOP-92, 48 h, read-out: Activity
[4] = Antiproliferative activity against human COLO205 cells assessed as cell growth at 10^-7 M after 48 hrs by sulforhodamine B assay; type: functional; conditions: COLO 205, 48 h, read-out: Activity
MDA-MB-231 = test: Antiproliferative activity against human MDA-MB-231 cells assessed as cell growth at 10^-7 M after 48 hrs by sulforhodamine B assay; type: functional; conditions: MDA-MB-231, 48 h, read-out: Activity
[5] = target: Tyrosine-protein kinase ABL1 (Homo sapiens) (UniProt P00519); test: Inhibition of human ABL1 at 10 uM measured after 40 mins by scintillation counting
Tyrosine-protein kinase ABL1 (Homo sapiens), sequence (P00519 whole entry): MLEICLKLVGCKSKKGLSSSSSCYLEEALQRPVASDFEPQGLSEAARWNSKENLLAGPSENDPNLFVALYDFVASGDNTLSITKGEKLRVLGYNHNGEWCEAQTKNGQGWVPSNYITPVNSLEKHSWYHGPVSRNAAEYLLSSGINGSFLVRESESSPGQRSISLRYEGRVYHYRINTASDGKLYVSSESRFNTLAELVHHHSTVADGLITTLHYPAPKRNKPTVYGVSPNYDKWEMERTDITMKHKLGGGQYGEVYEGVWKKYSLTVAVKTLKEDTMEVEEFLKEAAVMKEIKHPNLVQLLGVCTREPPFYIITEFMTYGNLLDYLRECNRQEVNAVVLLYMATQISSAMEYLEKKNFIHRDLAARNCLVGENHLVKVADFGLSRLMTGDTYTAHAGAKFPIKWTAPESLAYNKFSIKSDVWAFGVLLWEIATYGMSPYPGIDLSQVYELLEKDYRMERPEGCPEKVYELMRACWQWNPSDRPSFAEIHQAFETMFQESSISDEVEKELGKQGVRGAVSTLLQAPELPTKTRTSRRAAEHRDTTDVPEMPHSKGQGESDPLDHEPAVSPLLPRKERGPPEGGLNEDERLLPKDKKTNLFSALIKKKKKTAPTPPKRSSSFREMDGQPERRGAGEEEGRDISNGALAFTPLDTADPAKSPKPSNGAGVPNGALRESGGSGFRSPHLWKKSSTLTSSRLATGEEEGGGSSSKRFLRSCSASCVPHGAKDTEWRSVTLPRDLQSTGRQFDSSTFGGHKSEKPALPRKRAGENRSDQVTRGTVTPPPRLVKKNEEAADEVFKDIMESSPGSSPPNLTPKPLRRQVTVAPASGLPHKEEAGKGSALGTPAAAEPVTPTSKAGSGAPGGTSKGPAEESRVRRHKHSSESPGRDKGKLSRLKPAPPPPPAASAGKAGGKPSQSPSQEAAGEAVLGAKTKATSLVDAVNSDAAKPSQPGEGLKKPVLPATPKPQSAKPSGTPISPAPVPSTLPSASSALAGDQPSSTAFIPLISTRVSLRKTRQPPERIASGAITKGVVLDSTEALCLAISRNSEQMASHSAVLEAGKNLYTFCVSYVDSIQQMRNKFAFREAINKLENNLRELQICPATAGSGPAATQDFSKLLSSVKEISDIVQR

[6] = target: Activin receptor type-1-like (Homo sapiens) (UniProt P37023); test: Inhibition of human ALK1 at 10 uM measured after 40 mins by scintillation counting
Activin receptor type-1-like (Homo sapiens), sequence (P37023 whole entry): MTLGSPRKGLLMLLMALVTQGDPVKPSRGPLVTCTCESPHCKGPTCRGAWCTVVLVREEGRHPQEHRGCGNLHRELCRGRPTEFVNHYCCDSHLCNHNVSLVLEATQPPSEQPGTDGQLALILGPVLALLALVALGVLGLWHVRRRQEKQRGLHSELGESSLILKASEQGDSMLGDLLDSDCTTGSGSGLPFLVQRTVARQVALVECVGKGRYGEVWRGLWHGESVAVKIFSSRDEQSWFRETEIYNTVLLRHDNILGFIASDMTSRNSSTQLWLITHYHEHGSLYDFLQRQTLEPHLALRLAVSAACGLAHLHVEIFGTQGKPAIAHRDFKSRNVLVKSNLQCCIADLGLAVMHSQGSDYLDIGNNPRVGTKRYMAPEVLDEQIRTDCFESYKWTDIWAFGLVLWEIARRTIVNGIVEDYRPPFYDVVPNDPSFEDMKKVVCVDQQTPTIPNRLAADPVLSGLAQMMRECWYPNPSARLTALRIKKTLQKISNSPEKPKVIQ

[7] = target: Aurora kinase A (Homo sapiens) (UniProt O14965); test: Inhibition of human Aurora-A at 10 uM measured after 40 mins by scintillation counting
[8] = target: Serine/threonine-protein kinase B-raf (Homo sapiens) (UniProt P15056); test: Inhibition of human BRAF at 10 uM measured after 40 mins by scintillation counting
Serine/threonine-protein kinase B-raf (Homo sapiens), sequence (P15056 whole entry): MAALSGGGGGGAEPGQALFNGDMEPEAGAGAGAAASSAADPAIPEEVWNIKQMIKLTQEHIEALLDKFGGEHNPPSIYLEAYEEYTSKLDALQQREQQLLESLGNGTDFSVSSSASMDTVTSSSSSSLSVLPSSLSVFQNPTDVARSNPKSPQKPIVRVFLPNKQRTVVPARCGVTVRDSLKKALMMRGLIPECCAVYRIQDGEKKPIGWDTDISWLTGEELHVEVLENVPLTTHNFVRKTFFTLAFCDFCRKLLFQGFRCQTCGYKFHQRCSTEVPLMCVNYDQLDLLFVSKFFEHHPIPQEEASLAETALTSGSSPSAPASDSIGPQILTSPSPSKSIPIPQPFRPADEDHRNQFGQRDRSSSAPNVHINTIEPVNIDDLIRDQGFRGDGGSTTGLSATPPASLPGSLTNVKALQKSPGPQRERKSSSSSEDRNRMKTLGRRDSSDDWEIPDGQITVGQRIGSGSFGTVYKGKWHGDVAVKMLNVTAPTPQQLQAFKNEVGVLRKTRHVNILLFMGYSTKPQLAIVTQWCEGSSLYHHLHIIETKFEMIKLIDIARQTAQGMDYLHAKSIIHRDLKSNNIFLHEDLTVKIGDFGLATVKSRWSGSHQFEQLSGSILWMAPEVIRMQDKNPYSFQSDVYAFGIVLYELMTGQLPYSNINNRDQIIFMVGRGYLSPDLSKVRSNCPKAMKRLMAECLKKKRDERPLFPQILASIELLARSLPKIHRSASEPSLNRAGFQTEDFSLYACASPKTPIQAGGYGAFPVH

[9] = target: Hepatocyte growth factor receptor (Homo sapiens) (UniProt P08581); test: Inhibition of human C-Met at 10 uM measured after 40 mins by scintillation counting
[10] = target: Proto-oncogene tyrosine-protein kinase Src (Homo sapiens) (UniProt P12931); test: Inhibition of human C-Src at 10 uM measured after 40 mins by scintillation counting
Proto-oncogene tyrosine-protein kinase Src (Homo sapiens), sequence (P12931 2-536 limits assumed): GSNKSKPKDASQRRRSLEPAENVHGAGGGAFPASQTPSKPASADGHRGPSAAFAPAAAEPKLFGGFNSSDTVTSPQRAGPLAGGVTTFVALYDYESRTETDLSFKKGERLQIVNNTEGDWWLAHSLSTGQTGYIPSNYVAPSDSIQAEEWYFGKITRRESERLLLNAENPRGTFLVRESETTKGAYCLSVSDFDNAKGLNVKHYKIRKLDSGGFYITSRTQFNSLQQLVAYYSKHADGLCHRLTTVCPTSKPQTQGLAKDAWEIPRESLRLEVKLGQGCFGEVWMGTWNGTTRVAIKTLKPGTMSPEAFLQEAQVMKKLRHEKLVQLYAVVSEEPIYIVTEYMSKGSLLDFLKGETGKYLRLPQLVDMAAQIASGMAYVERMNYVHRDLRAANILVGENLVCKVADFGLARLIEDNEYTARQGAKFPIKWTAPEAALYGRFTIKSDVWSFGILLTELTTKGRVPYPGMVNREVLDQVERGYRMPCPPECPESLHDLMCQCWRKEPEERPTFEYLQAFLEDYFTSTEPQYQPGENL

[11] = target: Epidermal growth factor receptor (Homo sapiens) (UniProt P00533); test: Inhibition of human EGFR at 10 uM measured after 40 mins by scintillation counting
Epidermal growth factor receptor (Homo sapiens), sequence (P00533 whole entry): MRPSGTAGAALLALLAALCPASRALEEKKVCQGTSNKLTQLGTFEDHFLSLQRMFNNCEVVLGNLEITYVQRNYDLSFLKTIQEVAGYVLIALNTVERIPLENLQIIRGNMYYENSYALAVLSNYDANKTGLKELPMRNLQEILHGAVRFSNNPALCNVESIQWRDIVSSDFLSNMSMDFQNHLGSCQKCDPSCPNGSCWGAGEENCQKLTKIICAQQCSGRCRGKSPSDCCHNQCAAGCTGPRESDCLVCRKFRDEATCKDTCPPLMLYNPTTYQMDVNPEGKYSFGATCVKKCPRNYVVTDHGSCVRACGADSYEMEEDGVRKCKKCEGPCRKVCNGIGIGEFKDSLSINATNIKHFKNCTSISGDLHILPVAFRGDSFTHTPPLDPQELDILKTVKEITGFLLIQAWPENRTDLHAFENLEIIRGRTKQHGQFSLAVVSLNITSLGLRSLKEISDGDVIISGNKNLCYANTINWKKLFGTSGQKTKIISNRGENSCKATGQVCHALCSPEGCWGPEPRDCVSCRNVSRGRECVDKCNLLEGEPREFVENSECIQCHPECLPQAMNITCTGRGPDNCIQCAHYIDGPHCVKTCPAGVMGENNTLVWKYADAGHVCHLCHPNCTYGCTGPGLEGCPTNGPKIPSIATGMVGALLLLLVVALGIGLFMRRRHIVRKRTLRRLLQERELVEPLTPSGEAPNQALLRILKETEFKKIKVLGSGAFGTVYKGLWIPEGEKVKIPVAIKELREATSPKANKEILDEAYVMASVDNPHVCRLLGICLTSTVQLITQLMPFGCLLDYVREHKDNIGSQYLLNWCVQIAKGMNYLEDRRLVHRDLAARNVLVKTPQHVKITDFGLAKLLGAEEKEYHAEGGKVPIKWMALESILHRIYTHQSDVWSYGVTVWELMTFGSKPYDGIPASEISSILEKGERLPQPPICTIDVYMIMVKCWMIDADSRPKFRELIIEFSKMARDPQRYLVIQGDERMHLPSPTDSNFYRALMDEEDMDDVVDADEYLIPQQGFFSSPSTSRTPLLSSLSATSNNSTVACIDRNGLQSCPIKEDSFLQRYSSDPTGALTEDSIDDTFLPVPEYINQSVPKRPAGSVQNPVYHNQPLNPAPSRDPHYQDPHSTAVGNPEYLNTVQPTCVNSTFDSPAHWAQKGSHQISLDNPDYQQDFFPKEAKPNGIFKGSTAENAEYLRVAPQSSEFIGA

[12] = target: Fibroblast growth factor receptor 3 (Homo sapiens) (UniProt P22607); test: Inhibition of human FGFR3 at 10 uM measured after 40 mins by scintillation counting
[13] = target: RAF proto-oncogene serine/threonine-protein kinase (Homo sapiens, UniProt P04049); test: Inhibition of human C-RAF measured after 40 mins by scintillation counting
RAF proto-oncogene serine/threonine-protein kinase, sequence (P04049 whole entry): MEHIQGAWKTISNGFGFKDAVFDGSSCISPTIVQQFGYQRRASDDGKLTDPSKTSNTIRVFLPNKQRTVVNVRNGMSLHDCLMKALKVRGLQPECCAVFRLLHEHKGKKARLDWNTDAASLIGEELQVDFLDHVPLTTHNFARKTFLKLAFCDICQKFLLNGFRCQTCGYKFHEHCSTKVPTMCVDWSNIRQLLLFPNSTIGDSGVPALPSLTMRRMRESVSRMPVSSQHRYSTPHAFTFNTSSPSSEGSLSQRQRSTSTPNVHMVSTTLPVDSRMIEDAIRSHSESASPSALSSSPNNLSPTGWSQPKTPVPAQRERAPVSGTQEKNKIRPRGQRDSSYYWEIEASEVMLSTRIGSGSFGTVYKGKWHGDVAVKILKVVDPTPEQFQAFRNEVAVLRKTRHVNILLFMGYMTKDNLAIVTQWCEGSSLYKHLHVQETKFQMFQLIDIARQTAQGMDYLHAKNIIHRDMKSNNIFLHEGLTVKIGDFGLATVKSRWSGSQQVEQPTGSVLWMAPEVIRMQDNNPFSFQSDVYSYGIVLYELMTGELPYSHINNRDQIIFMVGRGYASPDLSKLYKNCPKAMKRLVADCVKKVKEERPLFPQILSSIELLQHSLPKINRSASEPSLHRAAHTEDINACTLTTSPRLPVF

[14] = test system: Serine/threonine-protein kinase B-raf (Homo sapiens), P15056 [V600E]; test: Inhibition of BRAF V600E mutant assessed as reduction in MEK phosphorylation in human A375P cells after 24 hrs by Western blot analysis; type: cell-based
Serine/threonine-protein kinase B-raf (Homo sapiens), P15056 [V600E], sequence (P15056 whole entry V600E): as the sequence (P15056 whole entry) above, with V600E counted along it

[15] = test system: Serine/threonine-protein kinase B-raf (Homo sapiens), P15056 [V600E]; test: Inhibition of BRAF V600E mutant assessed as reduction in ERK phosphorylation in human A375P cells after 24 hrs by Western blot analysis; type: cell-based
[16] = Antiproliferative activity against human COLO205 cells assessed as cell growth at 10^-8 M after 48 hrs by sulforhodamine B assay; type: functional; conditions: COLO 205, 48 h, read-out: Activity
[17] = Antiproliferative activity against human LOXIMVI cells assessed as cell growth at 10^-6 M after 48 hrs by sulforhodamine B assay; type: functional; conditions: LOX IMVI, read-out: Activity
Malme-3M = test: Antiproliferative activity against human MALME-3M cells assessed as cell growth at 10^-6 M after 48 hrs by sulforhodamine B assay; type: functional; conditions: read-out: Activity
[18] = Antiproliferative activity against human SKOV3 cells assessed as cell growth at 10^-8 M after 48 hrs by sulforhodamine B assay; type: functional; conditions: SK-OV-3, 48 h, read-out: Activity
SK-MEL-2 [19] = test: Antiproliferative activity against human SK-MEL-2 cells assessed as cell growth at 10^-6 M after 48 hrs by sulforhodamine B assay; type: functional; conditions: SK-MEL-2, 48 h, read-out: Activity
[20] = Antiproliferative activity against human UACC257 cells assessed as cell growth at 10^-6 M after 48 hrs by sulforhodamine B assay; type: functional; conditions: UACC-257, 48 h, read-out: Activity
[21] = Antiproliferative activity against human NCI-ADR-RES cells assessed as cell growth at 10^-6 M after 48 hrs by sulforhodamine B assay; type: functional; conditions: read-out: Activity
SK-MEL-2 [22] = test: Antiproliferative activity against human SK-MEL-2 cells assessed as cell growth at 10^-4 M after 48 hrs by sulforhodamine B assay; type: functional; conditions: SK-MEL-2, 48 h, read-out: Activity
[23] = Antiproliferative activity against human OVCAR8 cells assessed as cell growth at 10^-4 M after 48 hrs by sulforhodamine B assay; type: functional; conditions: OVCAR-8, 48 h, read-out: Activity
ACHN = test: Antiproliferative activity against human ACHN cells assessed as cell growth at 10^-4 M after 48 hrs by sulforhodamine B assay; type: functional; conditions: read-out: Activity

## CNC(=O)c1cc(Oc2ccc(NC(=O)Nc3ccc(Cl)c(C(F)(F)F)c3)cc2)ccn1 [SORAFENIB]
SK-MEL-5
  TGI: 3160 nM
  CC50: 5.01 µM
[1]
  TGI: 3160 nM
  CC50: 7.94 µM
[2]
  TGI: 6.31 µM

## CNC(=O)c1cc(Oc2ccc3nc(NC(=O)Nc4cc(C(F)(F)F)cc(C(F)(F)F)c4)sc3c2)ccn1
CCRF-CEM
  growth at 0.1 µM: 114%
[3]
  growth at 0.1 µM: 98%
[4]
  growth at 0.1 µM: 96%
SK-MEL-5
  GI50: 593 nM
  TGI: 2090 nM
  CC50: 5.87 µM
[1]
  GI50: 1210 nM
  TGI: 2530 nM
  CC50: 5.29 µM
MDA-MB-231
  growth at 0.1 µM: 98%
[2]
  GI50: 1020 nM
  LC50: 76.3 µM
  TGI: 3.81 µM
[5]
  inhibition: < 40%
[6]
  inhibition: < 40%
[7]
  inhibition: < 40%
[8]
  inhibition: < 40%
[9]
  inhibition: < 40%
[10]
  inhibition: < 40%
[11]
  inhibition: < 40%
[12]
  inhibition: < 40%
[13]
  IC50: 566 nM
[14]
  inhibition: Dose-dependent effect
[15]
  inhibition: Active
[16]
  growth at 0.01 µM: 90%
[17]
  growth at 1 µM: 63%
Malme-3M
  growth at 1 µM: 48%
[18]
  growth at 0.01 µM: 87%
SK-MEL-2 [19]
  growth at 1 µM: 52%
[20]
  growth at 1 µM: 59%
[21]
  growth at 1 µM: 63%
SK-MEL-2 [22]
  growth at 100 µM: -75%
[23]
  growth at 100 µM: -96%
ACHN
  growth at 100 µM: -80%
